Values after ≈ are worked out from the molar mass of the structure shown. Where two headings read alike, the source gives them in different places.
Tests used:
Type in all cases: cell-based
[1] = test system: E. coli ATCC25922; assay: MIC determination, broth microdilution (CLSI); conditions: Escherichia coli, ATCC25922, strain 1
[2] = test system: K. pneumoniae 60; assay: MIC determination, broth microdilution (CLSI); conditions: Klebsiella pneumoniae, 60, strain 2
[3] = test system: E. cloacae 34654; assay: MIC determination, broth microdilution (CLSI); conditions: Enterobacter cloacae, 34654, strain 3
[4] = test system: C. freundii K21/3034; assay: MIC determination, broth microdilution (CLSI); conditions: Citrobacter freundii, K21/3034, strain 4
[5] = test system: M. morganii 126/3048; assay: MIC determination, broth microdilution (CLSI); conditions: Morganella morganii, 126/3048, strain 5
[6] = test system: P. aeruginosa PAO1; assay: MIC determination, broth microdilution (CLSI); conditions: Pseudomonas aeruginosa, PAO1, strain 6
[7] = test system: P. aeruginosa 2297 (AmpC wt); assay: MIC determination, broth microdilution (CLSI); conditions: Pseudomonas aeruginosa, strain 7
[8] = test system: P. aeruginosa 2297-con (AmpC derepressed); assay: MIC determination, broth microdilution (CLSI); conditions: Pseudomonas aeruginosa, read-out: strain 8 MIC, strain 8
[9] = test system: A. baumannii ATCC15308; assay: MIC determination, broth microdilution (CLSI); conditions: Acinetobacter baumannii, ATCC15308, strain 9
[10] = test system: S. maltophilia ICB7569; assay: MIC determination, broth microdilution (CLSI); conditions: Stenotrophomonas maltophilia, ICB7569, strain 10
[11] = test system: S. pneumoniae 113; assay: MIC determination, broth microdilution (CLSI)
[12] = test system: E. coli J62; assay: MIC determination, broth microdilution (CLSI); conditions: Escherichia coli, J62, strain 17
[13] = test system: E. coli J62-TEM-3; assay: MIC determination, broth microdilution (CLSI); conditions: Escherichia coli
[14] = test system: strain 19; assay: MIC determination, broth microdilution (CLSI)
[15] = test system: strain 20; assay: MIC determination, broth microdilution (CLSI)
[16] = test system: strain 21; assay: MIC determination, broth microdilution (CLSI)
[17] = test system: S. aureus 133; assay: MIC determination, broth microdilution (CLSI)
[18] = test system: M. catarrhalis ICB489; assay: MIC determination, broth microdilution (CLSI); conditions: Moraxella catarrhalis, ICB489, strain 12
[19] = test system: H. influenzae ATCC 49247; assay: MIC determination, broth microdilution (CLSI); conditions: Haemophilus influenzae
[20] = test system: B. fragilis 6688; assay: MIC determination, broth microdilution (CLSI); conditions: Bacteroides fragilis, 6688, strain 15
[21] = test system: C. perfringens DSM756; assay: microbe, parasite or virus in culture; conditions: Clostridium perfringens, DSM756, read-out: MIC strain 16 (C. perfringens DSM756), strain 16; broth microdilution
[22] = test system: Bacteria; assay: MIC determination in combination with β-lactamase inhibitors (constant 4 μg/mL)
[23] = Streptococcus pneumoniae, 113, strain 14, read-out: strain 14 MIC
[24] = Staphylococcus aureus, 133, strain 11, read-out: strain 11 MIC
[25] = ATCC49247, strain 12, broth microdilution, read-out: MIC strain 12 (H. influenzae ATCC 49247)
[26] = Streptococcus pneumoniae, 113, strain 13, broth microdilution, read-out: MIC strain 13 (S. pneumoniae 113)
[27] = broth microdilution, read-out: MIC strain 15 (B. fragilis 6688)
[28] = broth microdilution, read-out: MIC strain 17 (E. coli J62)
[29] = J62TEM3, read-out: MIC strain 18 (E. coli J62-TEM-3), strain 18, broth microdilution

Work on `CC1(C)[C@H](NC(=O)/C(=N\OCCOc2ccc(C(=N)N)nn2)c2csc(N)n2)C(=O)N1OS(=O)(=O)O` [Example 29, (2Z)-2-(2-Amino-1,3-thiazol-4-yl)-2-({2-[(6-carbamimidoylpyridazin-3-yl)oxy]-ethoxy}imino)-N-[(3S)-2,2-dimethyl-4-oxo-1-(sulfooxy)azetidin-3-yl]ethanamide] yielded an MIC [1] of 0.25 µg/mL (≈ 0.46 µM), an MIC [2] of 0.25 µg/mL (≈ 0.46 µM) and an MIC [3] of 0.5 µg/mL (≈ 0.92 µM). The MIC [4] was 0.25 µg/mL (≈ 0.46 µM), the MIC [5] was 0.25 µg/mL (≈ 0.46 µM) and the MIC [6] was 8 µg/mL (≈ 14.7 µM). The MIC [7] was 16 µg/mL (≈ 29.4 µM), the MIC [8] was 8 µg/mL (≈ 14.7 µM) and the MIC [9] was 2 µg/mL (≈ 3.68 µM). It also gave an MIC [10] of 8 µg/mL (≈ 14.7 µM), an MIC [11, 23] of 4 µg/mL (≈ 7.36 µM) and an MIC ([12]; read-out: strain 17 MIC) of 0.5 µg/mL (≈ 0.92 µM). For the same compound, the MIC ([13]; J62TEM3, read-out: strain 18 MIC, strain 18) was 8 µg/mL (≈ 14.7 µM), the MIC [14] was 0.5 µg/mL (≈ 0.92 µM) and the MIC [15] was 0.5 µg/mL (≈ 0.92 µM). For the same compound, the MIC [16] was 0.5 µg/mL (≈ 0.92 µM).
For `C[C@H]1[C@H](NC(=O)/C(=N\OCCCOc2ccc(C(=N)N)cc2)c2csc(N)n2)C(=O)N1S(=O)(=O)O` [Example 37, (2S,3S)-3-{[(2Z)-2-(2-Amino-1,3-thiazol-4-yl)-2-[{3-(4-carbamimidoylphenoxy)propoxy]imino}acetyl]amino}-2-methyl-4-oxoazetidine-1-sulfonic acid], the MIC [1] was 2 µg/mL (≈ 3.81 µM), the MIC [2] was 2 µg/mL (≈ 3.81 µM) and the MIC [3] was 2 µg/mL (≈ 3.81 µM). For the same compound, the MIC [4] was 2 µg/mL (≈ 3.81 µM), the MIC [5] was 1 µg/mL (≈ 1.9 µM) and the MIC [6] was 8 µg/mL (≈ 15.2 µM). For the same compound, the MIC [7] was 8 µg/mL (≈ 15.2 µM), the MIC [9] was 4 µg/mL (≈ 7.61 µM) and the MIC [17, 24] was 1 µg/mL (≈ 1.9 µM). The MIC [18] was 0.5 µg/mL (≈ 0.951 µM), the MIC ([19]; ATCC49247, strain 13, read-out: strain 13 MIC) was 1 µg/mL (≈ 1.9 µM) and the MIC [11, 23] was 4 µg/mL (≈ 7.61 µM). The MIC ([20]; read-out: strain 15 MIC) was 16 µg/mL (≈ 30.4 µM), the MIC ([12]; read-out: strain 17 MIC) was 4 µg/mL (≈ 7.61 µM) and the MIC [14] was 2 µg/mL (≈ 3.81 µM). It also gave an MIC [15] of 2 µg/mL (≈ 3.81 µM) and an MIC [16] of 2 µg/mL (≈ 3.81 µM).
In the case of `CC1(C)[C@H](NC(=O)/C(=N\O[C@@H](COc2ccc(C(=N)NC3CCNCC3)cc2)C(=O)O)c2csc(N)n2)C(=O)N1OS(=O)(=O)O` [Example 108, (2S)-2-({[(1Z)-1-(2-Amino-1,3-thiazol-4-yl)-2-{[(3S)-2,2-dimethyl-4-oxo-1-(sulfooxy)-azetidin-3-yl]amino}-2-oxoethylidene]amino}oxy)-3-{4-[N-(piperidin-4-yl)carbamimidoyl]phenoxy}propanoic acid], the MIC [1] is reported as 0.125 µg/mL (≈ 0.187 µM), the MIC [2] is reported as 0.125 µg/mL (≈ 0.187 µM) and the MIC [3] is reported as 0.125 µg/mL (≈ 0.187 µM). For the same compound, the MIC [4] was no more than 0.063 µg/mL, the MIC [5] was no more than 0.063 µg/mL and the MIC [6] was 0.5 µg/mL (≈ 0.748 µM). For the same compound, the MIC [7] was 1 µg/mL (≈ 1.5 µM), the MIC [8] was 1 µg/mL (≈ 1.5 µM) and the MIC [9] was 1 µg/mL (≈ 1.5 µM). The MIC [10] was 4 µg/mL (≈ 5.98 µM), the MIC [17, 24] was no more than 0.063 µg/mL and the MIC ([17]; Staphylococcus aureus, 133, strain 14, broth microdilution, read-out: MIC strain 14 (S. aureus 133)) was 32 µg/mL (≈ 47.9 µM). The MIC [19, 25] was no more than 0.063 µg/mL, the MIC [11, 26] was 0.5 µg/mL (≈ 0.748 µM) and the MIC [20, 27] was 8 µg/mL (≈ 12 µM). For the same compound, the MIC [21] was 1 µg/mL (≈ 1.5 µM), the MIC [12, 28] was 0.125 µg/mL (≈ 0.187 µM) and the MIC [13, 29] was 4 µg/mL (≈ 5.98 µM). For the same compound, the “MIC strain 19 (E. coli J62-TEM-3 + 4 μg/mL clavulanic acid)” value [22] was “≦0.063 mg/L”, the “MIC strain 20 (E. coli J62-TEM-3 + 4 μg/mL sulbactam)” value [22] was “≦0.063 mg/L” and the “MIC strain 21 (E. coli J62-TEM-3 + 4 μg/mL tazobactam)” value [22] was 0.125 µg/mL.
With `CN1CC(NC(=N)c2ccc(OC[C@H](O/N=C(\C(=O)N[C@@H]3C(=O)N(OS(=O)(=O)O)C3(C)C)c3csc(N)n3)C(=O)O)cc2)C1` [Example 109] the MIC [1] was 0.125 µg/mL (≈ 0.191 µM), the MIC [2] was 0.125 µg/mL (≈ 0.191 µM) and the MIC [3] was 0.125 µg/mL (≈ 0.191 µM). The MIC [4] was 0.125 µg/mL (≈ 0.191 µM), the MIC [5] was 0.125 µg/mL (≈ 0.191 µM) and the MIC [6] was 2 µg/mL (≈ 3.05 µM). For the same compound, the MIC [7] was 2 µg/mL (≈ 3.05 µM), the MIC [8] was 2 µg/mL (≈ 3.05 µM) and the MIC [9] was 2 µg/mL (≈ 3.05 µM). For the same compound, the MIC [10] was 8 µg/mL (≈ 12.2 µM), the MIC [17, 24] was no more than 0.063 µg/mL and the MIC [19, 25] was no more than 0.063 µg/mL. It also gave an MIC [11, 26] of 0.5 µg/mL (≈ 0.764 µM), an MIC [20, 27] of 16 µg/mL (≈ 24.4 µM) and an MIC [21] of 4 µg/mL (≈ 6.11 µM). For the same compound, the MIC [12, 28] was 0.125 µg/mL (≈ 0.191 µM), the MIC [13, 29] was 2 µg/mL (≈ 3.05 µM) and the “MIC strain 19 (E. coli J62-TEM-3 + 4 μg/mL clavulanic acid)” value [22] was “≦0.063 mg/L”. For the same compound, the “MIC strain 20 (E. coli J62-TEM-3 + 4 μg/mL sulbactam)” value [22] was 0.25 µg/mL and the “MIC strain 21 (E. coli J62-TEM-3 + 4 μg/mL tazobactam)” value [22] was 0.125 µg/mL.
With `CC1(C)[C@H](NC(=O)/C(=N\O[C@@H](COc2ccc(C(=N)NCCNc3ncccn3)cc2)C(=O)O)c2csc(N)n2)C(=O)N1OS(=O)(=O)O` [Example 110, (2S)-2-({[(1Z)-1-(2-Amino-1,3-thiazol-4-yl)-2-{[(3S)-2,2-dimethyl-4-oxo-1-(sulfooxy)azetidin-3-yl]amino}-2-oxoethylidene]amino}oxy)-3-(4-{N-[2-(pyrimidin-2-ylami-no)ethyl]carbamimidoyl}phenoxy)propanoic acid] the MIC [1] was 0.5 µg/mL (≈ 0.707 µM), the MIC [2] was 1 µg/mL (≈ 1.41 µM) and the MIC [3] was 1 µg/mL (≈ 1.41 µM). For the same compound, the MIC [4] was 0.5 µg/mL (≈ 0.707 µM), the MIC [5] was 0.25 µg/mL (≈ 0.354 µM) and the MIC [6] was 8 µg/mL (≈ 11.3 µM). The MIC [7] was 8 µg/mL (≈ 11.3 µM), the MIC [8] was 16 µg/mL (≈ 22.6 µM) and the MIC [9] was 32 µg/mL (≈ 45.3 µM). It also gave an MIC [10] of 8 µg/mL (≈ 11.3 µM), an MIC [17, 24] of no more than 0.063 µg/mL and an MIC [19, 25] of no more than 0.063 µg/mL. For the same compound, the MIC [11, 26] was 0.25 µg/mL (≈ 0.354 µM), the MIC [20, 27] was 16 µg/mL (≈ 22.6 µM) and the MIC [21] was 8 µg/mL (≈ 11.3 µM). For the same compound, the MIC [12, 28] was 1 µg/mL (≈ 1.41 µM), the MIC [13, 29] was 32 µg/mL (≈ 45.3 µM) and the “MIC strain 19 (E. coli J62-TEM-3 + 4 μg/mL clavulanic acid)” value [22] was 0.5 µg/mL. The “MIC strain 20 (E. coli J62-TEM-3 + 4 μg/mL sulbactam)” value [22] was 0.5 µg/mL and the “MIC strain 21 (E. coli J62-TEM-3 + 4 μg/mL tazobactam)” value [22] was 0.5 µg/mL.
